Data from the METLIN SMRT retention time set (Domingo-Almenara et al. 2019).

Test: gradient 5% acetonitrile 3 min, to 50% in 2 min, to 85% in 15 min, held 3 min, 100 µL/min
Conditions: column: Zorbax Extend-C18 2.1 x 50 mm; eluents: water / acetonitrile, 0.1% formic acid
Outline: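 Pure standards were run in mixtures of ~100 molecules by HPLC coupled to a quadrupole time-of-flight mass spectrometer. The column was a Zorbax Extend-C18 (2.1 × 50 mm, 1.8 μm) at 100 μL/min, with water and acetonitrile each containing 0.1% formic acid, in positive and negative ionization mode. Dead and dwell volumes were 40 μL and 900 μL. Retention time was taken from computationally picked adduct peaks, each manually inspected, with data collected over 3 months.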

SMILES: Cc1cc2nc(C(=O)Nc3ccc(C)c(C)c3)cc(C)n2n1
- RP-LC retention time: 1090 s

SMILES: COc1cccc2sc(N(C)CC(=O)Nc3ccc(-n4cnnn4)cc3)nc12
- RP-LC retention time: 729 s

SMILES: COc1ccccc1-c1noc(Cn2c(=O)n(-c3ccc(Cl)cc3)c(=O)c3sccc32)n1
- RP-LC retention time: 950 s

SMILES: C[C@]12CCC3=C4CCC(=O)C=C4CC[C@H]3[C@@H]1CC[C@@]2(O)CC#N
- RP-LC retention time: 796 s

SMILES: CCCN1C(=O)COc2ccc(-c3noc(-c4cc(OC)c(OC)c(OC)c4)n3)cc21
- RP-LC retention time: 1140 s

SMILES: CC(=O)NCCc1nc2ccccc2n1CCCOc1cccc2ccccc12
- RP-LC retention time: 611 s

SMILES: CCc1nnc([C@@H]2CC(F)(F)CN2C(=O)CCn2cccn2)o1
- RP-LC retention time: 639 s

SMILES: Cc1oc2ccn(Cc3ccccc3F)c(=O)c2c1C(=O)NCc1ccccc1
- RP-LC retention time: 1070 s

SMILES: c1ccc(-c2nc(C3CCN(Cc4cccs4)C3)no2)nc1 (centres undefined)
- RP-LC retention time: 583 s

SMILES: Cc1nc(-n2nc(C)c(Cl)c2C)sc1C(=O)N1CCCCC1
- RP-LC retention time: 1200 s

SMILES: Cc1cc2c(cc1S(=O)(=O)N1CCCC1C(=O)N1CCN(c3ccccc3)CC1)OCC(=O)N2 (centres undefined)
- RP-LC retention time: 747 s

SMILES: Cc1ccc2nc3c(c(C(=O)NC(C)C)c2c1)CCC3
- RP-LC retention time: 610 s

SMILES: COc1ccc(-c2nc(C3CC(=O)N(c4ccc(F)c(Cl)c4)C3)no2)cc1OC (centres undefined)
- RP-LC retention time: 963 s

SMILES: CCOc1ccc(NC(=O)c2cc3sc(Cl)cc3n2CC)cc1
- RP-LC retention time: 1240 s

SMILES: Cc1cccc(N2CCN(C(=O)Cn3c(=O)c4nncn4c4ncccc43)CC2)c1C
- RP-LC retention time: 791 s

SMILES: CN1C(=O)CO[C@@H](C(=O)O)[C@@H]1c1ccccc1
- RP-LC retention time: 621 s

SMILES: O=C(CCCc1c[nH]c2ccccc12)N1CCN2CCS(=O)(=O)N(C3CC3)C(=O)C2C1 (centres undefined)
- RP-LC retention time: 824 s

SMILES: Cc1sc(NC(=O)c2ccc(S(=O)(=O)N(C)C)cc2)nc1-c1ccc2c(c1)NC(=O)CO2
- RP-LC retention time: 842 s

SMILES: O=C(NCC(c1ccsc1)N1CCc2ccccc2C1)c1cccs1 (centres undefined)
- RP-LC retention time: 569 s

SMILES: Cn1cc(-c2nc(C(=O)N3CCN(c4ccccc4Cl)CC3)cs2)c2cccnc21
- RP-LC retention time: 1070 s

SMILES: CCOC(=O)c1ccccc1NC(=O)CSc1ccc(-c2ccco2)nn1
- RP-LC retention time: 524 s

SMILES: CCOc1ccc(-c2cc3c(=O)n(Cc4nc(-c5ccc(F)cc5)no4)ncn3n2)cc1
- RP-LC retention time: 1160 s

SMILES: Cc1nnc(NC(=O)CN2CCC(c3nnc(C(F)(F)F)o3)CC2)s1
- RP-LC retention time: 545 s

SMILES: CCOc1ccc(C(C)NC(=O)C2c3ccccc3CCN2C(=O)C2CC2)cc1 (centres undefined)
- RP-LC retention time: 907 s

SMILES: O=C(Nc1ccc(C(F)(F)F)cc1)N1CC(n2cnnc2-c2ccccc2)C1
- RP-LC retention time: 784 s

SMILES: CC(C)(C)c1ccc(C(=O)Nc2ccc(S(N)(=O)=O)cc2)cc1
- RP-LC retention time: 932 s

SMILES: O=C(CSc1ccccc1)N1CCc2nc(-c3ccc(F)cc3)ncc2C1
- RP-LC retention time: 1000 s

SMILES: Cc1cc(C2CCCN2C(=O)Nc2ccccc2Br)on1 (centres undefined)
- RP-LC retention time: 867 s

SMILES: COc1cccc(CCC(=O)N2C[C@@H]3C[C@H](NS(C)(=O)=O)[C@H]2C3)c1
- RP-LC retention time: 566 s

SMILES: O=C(Cn1c(=O)cc(C(=O)N2CCCCC2)c2ccccc21)NC1CCCC1
- RP-LC retention time: 697 s

SMILES: CC(=O)NCC(=O)N1CCCn2cc(-c3ccccc3)nc21
- RP-LC retention time: 570 s

SMILES: Cc1ccc(C)c(-c2coc(-c3ccc(NC(=O)C(C)(C)C)cc3)n2)c1
- RP-LC retention time: 1280 s

SMILES: Cc1cc(C)cc(NC(=O)Cn2nc(N3CCC(C)CC3)c3ccccc3c2=O)c1
- RP-LC retention time: 1100 s

SMILES: CCOc1ccc(-c2ccc(=O)n(Cc3nc(-c4cccc(C)c4)no3)n2)cc1
- RP-LC retention time: 1120 s

SMILES: Cc1cccc(N2CCN(CC(O)c3ccc4c(c3)OCO4)CC2)c1 (centres undefined)
- RP-LC retention time: 669 s

SMILES: CCS(=O)(=O)N1CC(=O)N(c2ccc(C)cc2)C(C)(C(=O)NC2CCCCCCC2)C1 (centres undefined)
- RP-LC retention time: 979 s

SMILES: O=S(=O)(Cc1ccccc1Cl)N1CCc2nc(-c3ccc(F)cc3)ncc2C1
- RP-LC retention time: 1100 s

SMILES: CC(C)NC(=O)N1CCCC(Cn2c(C3CC3)nc3cccnc32)C1 (centres undefined)
- RP-LC retention time: 604 s

SMILES: COC(=O)c1cn(Cc2cccc(C)c2)c2nc(C)ccc2c1=O
- RP-LC retention time: 854 s

SMILES: COc1cccc(S(=O)(=O)N2CC(F)(F)C[C@H]2CN2CCc3ccccc3C2)c1
- RP-LC retention time: 807 s

SMILES: CC1Oc2ccccc2N(CC(=O)N2CCCN(c3cc(=O)n(C(C)C)c(=O)n3C(C)C)CC2)C1=O (centres undefined)
- RP-LC retention time: 845 s

SMILES: O=C(NCc1ccco1)C1CC(=O)N(c2ccc3c(c2)CCN3C(=O)C2CC2)C1 (centres undefined)
- RP-LC retention time: 687 s

SMILES: Cc1ccc(C)c(NC(=O)C2CCN(C(=O)C3Sc4ccccc4NC3=O)CC2)c1 (centres undefined)
- RP-LC retention time: 760 s

SMILES: Cc1ccccc1-n1ccn(Cc2nc(-c3ccc(Cl)c(F)c3)no2)c(=O)c1=O
- RP-LC retention time: 679 s

SMILES: CCOC(=O)c1cc(S(=O)(=O)N2CCCC2C(=O)Nc2ccc(NC(C)=O)cc2)cn1C (centres undefined)
- RP-LC retention time: 718 s

SMILES: CCNc1cc(N2CCCC(CCC(=O)N3CCN(C(=O)c4ccco4)CC3)C2)ncn1 (centres undefined)
- RP-LC retention time: 610 s

SMILES: Cc1ccc(F)c(NC(=O)c2c(O)c3cccnc3n(-c3ccc(F)cc3)c2=O)c1
- RP-LC retention time: 1140 s

SMILES: C/C=C(/C)C(=O)O[C@H]1CC(C)=CC(=O)[C@@]2(C)CC[C@@](O)(C(C)C)[C@H]12
- RP-LC retention time: 725 s

SMILES: COc1ccc(Cc2nc3ccc(C(=O)NCc4ccc(C)o4)cc3o2)cc1
- RP-LC retention time: 918 s

SMILES: CC1CCN(C(=O)c2cc3c(s2)CCC(C(=O)NCCCN2CCOCC2)C3)CC1 (centres undefined)
- RP-LC retention time: 542 s

SMILES: CCn1cc(-c2nc(C)c(C(=O)N3CCc4ccccc43)s2)c2cccnc21
- RP-LC retention time: 1030 s

SMILES: Fc1ccccc1-c1noc(-c2nnn3c2COC(c2ccc(Cl)cc2)C3)n1 (centres undefined)
- RP-LC retention time: 1160 s

SMILES: COC(=O)c1cc(OCC(=O)Nc2ccccc2)c2cc(OC)c(OC)cc2n1
- RP-LC retention time: 711 s

SMILES: CC(C)(C)NC(=O)CCc1c(-c2ccc(Br)cc2)nc2ccccn12
- RP-LC retention time: 681 s

SMILES: Cn1ncc2c3ccccc3n(CCCC(=O)NCCCN3CCCC3=O)c2c1=O
- RP-LC retention time: 665 s

SMILES: Cc1ccc(Cl)cc1NC(=O)N1CCc2nc[nH]c2C1
- RP-LC retention time: 612 s

SMILES: Cc1ccc(NC(=O)C2CCN(S(=O)(=O)c3ccc4c(c3)NC(=O)CO4)CC2)c(C)c1
- RP-LC retention time: 732 s

SMILES: CCS(=O)(=O)N1CC(=O)N(c2cc(C)ccc2C)C(C)(C(=O)NCc2ccccc2)C1 (centres undefined)
- RP-LC retention time: 807 s

SMILES: Cc1onc(-c2ccccc2Cl)c1C(=O)OCn1nnc2ccccc2c1=O
- RP-LC retention time: 891 s

SMILES: Cc1noc(-c2ccnc(-n3ncc(C(=O)NC4CCCCC4)c3C)c2)n1
- RP-LC retention time: 892 s

SMILES: CC1CCN(C(=O)c2ccc3c(c2)n(C)c(=O)c2ccnn23)CC1
- RP-LC retention time: 587 s

SMILES: CCc1ccc(-c2nc(-c3ccc4c(c3)nnn4CCN3CCOCC3)no2)cc1
- RP-LC retention time: 663 s

SMILES: CCc1cc(=O)n(CC(=O)Nc2cccc(SC)c2)c(N2CCOCC2)n1
- RP-LC retention time: 846 s

SMILES: CCCc1cc(N2CCN(C(=O)c3ccc4c(c3)OCO4)CC2)nc2nnc(CC)n12
- RP-LC retention time: 650 s

SMILES: CCn1cc2c(n1)c(=O)n(Cc1ccccc1)c(=O)n2CC(=O)NCc1ccccc1
- RP-LC retention time: 819 s

SMILES: O=c1cc(-c2ccccc2)nc2n1CCN2Cc1ccccn1
- RP-LC retention time: 658 s

SMILES: Cn1nccc1C(=O)Nc1ccc(OCc2nnc(-c3ccc(Cl)cc3)o2)cc1
- RP-LC retention time: 864 s

SMILES: O=S(=O)(Cc1ccccc1)N1CCc2nc(-c3ccc(Cl)cc3)ncc2C1
- RP-LC retention time: 1150 s

SMILES: COCCN1C(=O)[C@H]2CN(Cc3ccc(F)cc3)C[C@H]2C1=O
- RP-LC retention time: 585 s

SMILES: CNC1(C)[C@H]2CC[C@H](C2)C1(C)C (some centres undefined)
- RP-LC retention time: 606 s

SMILES: Cc1cccc(Cn2c(CN3CCC(C(=O)NCCc4ccco4)CC3)cc3ccccc32)c1
- RP-LC retention time: 800 s

SMILES: Cc1cc(=O)n(CC(=O)NCc2ccc3c(c2)OCO3)c(-c2ccc(F)cc2)n1
- RP-LC retention time: 940 s

SMILES: Cc1nnc(-c2coc(S(=O)(=O)N3CCC(N4CCCCC4)CC3)c2)o1
- RP-LC retention time: 615 s

SMILES: Cc1cccc(-n2c(=O)c3c(cc(C)n3C)n(CC(=O)Nc3cccc(C(C)C)c3)c2=O)c1
- RP-LC retention time: 626 s

SMILES: CCNC(=O)c1nc(Nc2ccc(C)cc2)c2ccccc2n1
- RP-LC retention time: 705 s

SMILES: O=C(NCc1ccc2c(c1)N(C(=O)c1ccccc1)CC2)c1cccs1
- RP-LC retention time: 814 s

SMILES: COc1ccc(OC)c(NC(=O)c2cn3c(n2)CSCC3)c1
- RP-LC retention time: 767 s

SMILES: O=C(Nc1ccccc1)N1CCC(CCNC(=O)C2(c3ccccc3)CC2)CC1
- RP-LC retention time: 882 s

SMILES: COc1ccc(F)cc1S(=O)(=O)N1CCC2(CC1)NCCCN=C2NC1CCCC1
- RP-LC retention time: 607 s

SMILES: Cc1ccc(C(=O)N2C[C@@H](Oc3ccccc3)C[C@H]2C(=O)NC2CC2)s1
- RP-LC retention time: 790 s

SMILES: O=C(CNC(=O)C1CCCCC1)Nc1nc2ccccc2[nH]1
- RP-LC retention time: 619 s

SMILES: CCn1ncc(Cl)c1C(=O)N1CCCC1c1c(C)noc1C (centres undefined)
- RP-LC retention time: 734 s

SMILES: Cc1ccc(-c2cc3c(=O)n(Cc4noc(CN5CCN(C)CC5)n4)ccn3n2)cc1
- RP-LC retention time: 659 s

SMILES: CC(=O)c1ccc(NS(=O)(=O)c2ccccc2[N+](=O)[O-])cc1
- RP-LC retention time: 729 s

SMILES: COc1ccccc1-c1noc(Cn2c(=O)n(C(C)C)c(=O)c3ccccc32)n1
- RP-LC retention time: 994 s

SMILES: Cc1cccc2nc(-c3cccc(Cl)c3)c(Nc3ccc4c(c3)OCCO4)n12
- RP-LC retention time: 717 s

SMILES: O=[N+]([O-])c1ccccc1S(=O)(=O)N1CCc2ccccc21
- RP-LC retention time: 893 s

SMILES: N#Cc1ccc2c(c1)N(CCCN1CCC(O)CC1)c1ccccc1S2
- RP-LC retention time: 743 s

SMILES: CC(C)c1nc2c(NC(=O)c3ccsc3)cccn2n1
- RP-LC retention time: 866 s
